These are literature values, as cited in US20190275032A1 (Boehringer Ingelheim International GmbH, priority 2016, published 2019).

One data set deals with PDGFR-α and-β. As to conditions: normal human lung fibroblasts in vitro.
Data set [1] concerns patients with IPF. As to conditions: both INPULSIS trials, nintedanib 150 mg twice daily versus placebo.
The subject of data set [2] is patients with IPF.

Turning to `COC(=O)c1ccc2c(c1)NC(=O)/C2=C(\Nc1ccc(N(C)C(=O)CN2CCN(C)CC2)cc1)c1ccccc1` [Nintedanib, 3-Z-[1-(4-(N-((4-methyl-piperazin-1-yl)-methylcarbonyl)-N-methyl-amino)-anilino)-1-phenyl-methylene]-6-methoxycarbonyl-2-indolinone], the “PDGFR-α and -β activation” value in the data set with PDGFR-α and-β is recorded as “inhibit”. In addition, the total lung collagen result in the data set on mouse models of IPF (IPF mouse models) is on record as “significant reductions”. Besides, the “lymphocyte and neutrophil counts in the bronchoalveolar lavage fluid” value with mouse models of IPF (two different mouse models of IPF) is recorded as “significant reductions”. Besides, the “exposure in patients with hepatic impairment” value (Child Pugh A, Child Pugh B) is “Exposure increased”. Besides, the “elimination via biliary/faecal excretion” value (in vivo) is recorded as more than 90%. For the same molecule, in the data set on patients with IPF [1], the “reduction of the annual rate of decline in FVC (mL/year)” value is given as “approximately 50%”. Moreover, the “PDGF- or FGF-2-stimulated migration of lung fibroblasts” value with human lung fibroblasts (fibroblasts from patients with IPF) is listed as “attenuated”. For the same molecule, the “TGF-β-induced fibroblast to myofibroblast transformation” value in the data set on human lung fibroblasts (primary human lung fibroblasts from IPF patients) was “inhibited”.

Consider `Cc1ccc(=O)n(-c2ccccc2)c1` [Pirfenidone, 5-methyl-1-phenyl-2(1H)-Pyridinone], for which, in the data set on patients with IPF [2] (ASCEND Phase III trial), the “primary endpoint of change from baseline FVC % predicted” value is given as “met the primary endpoint”. Besides, the “primary FVC lung function endpoint” value with patients with IPF [2] (international Phase III CAPACITY program) is “demonstrated efficacy on the primary FVC lung function endpoint in only one of two confirmatory trials”. In the data set with patients with IPF [2] (two local trials in Japan), the “decline of vital capacity” value is listed as “reduced decline”.
